Laboratory results: patent publication US9598383B2, “Reactive oxygen species-based prodrugs” (The Regents of the University of California, priority 2013, dated 2017)

Assays:
[1] = H2O2-triggered deprotection of model compounds (conversion to acid), analytical HPLC; assay type: physicochemical; settings: for percent conversion to acid: incubation at RT; for deprotection, conversion to the acid: excess of H2O2 (27 equiv) in buffer, after 4 h of incubation
Description: To be effective prodrugs must have good water solubility and be rapidly converted to the active drug under the desired stimulus. These two aspects were evaluated first in model systems. […] An authentic HPLC trace of each was obtained and was then compared to a trace obtained after 1 h and 4 h of incubation. […] The stability of each compound was tested at physiological pH (100 mM TRIS-HCl, pH 7.2) as well as in the presence of glutathione (9 equiv).
Injections consisted of 100 μL, of a 50 μM.

[2] = Stability of model compounds in simulated physiological conditions, analytical HPLC; assay type: physicochemical; settings: for stability: HEPES, RT, 24 h; for stability at physiological pH: 100 mM TRIS-HCl; for stability in the presence of glutathione: glutathione (9 equiv)
COX-1 = assay: COX inhibition, commercially available fluorescent assay (COX-1); assay type: biochemical; settings: COX-1 isoform
Description: The efficacy of the prodrug to inhibit its target was also evaluated. For proIBU a commercially available fluorescent assay was utilized. ProIBU was tested against both isoforms of the COX enzyme. […] Table 1 and FIG. 3.

[3] = Hydrolytic stability of prodrugs in buffer and with biologically relevant nucleophiles, analytical HPLC
Description: Initially, an authentic HPLC trace was obtained of proIBU and proMMPi, and a second trace was obtained after incubating in buffer (100 mM TRIS-HCl, pH 7.4) for 24 h at 37° C. Each prodrug was incubated in the same conditions, with the addition of 20 equivalents of lysine, serine and glutathione, all in distinct trials.
All compounds were initially dissolved in DMSO and further diluted with specified buffer. Injections consisted of 100 μl, of a 1 mM solution.

percent conversion to acid ([1]; 1 h) [%]	percent conversion to acid ([1]; 4 h) [%]	stability ([2]; pH 7.2 + GSH (9 equiv)) [%]	stability ([2]; pH 7.2) [%]	stability ([2]; pH 8.0) [%]	deprotection, conversion to the acid [1]	stability at physiological pH ([2]; pH 7.2)	stability in the presence of glutathione [2]	Compound	inhibition of COX enzyme (COX-1)	hydrolytic stability ([3]; 100 mM TRIS-HCl, pH 7.4, 24 h at 37° C., 20 equivalents of glutathione) [%]	hydrolytic stability ([3]; 100 mM TRIS-HCl, pH 7.4, 24 h at 37° C., 20 equivalents of lysine) [%]	hydrolytic stability ([3]; 100 mM TRIS-HCl, pH 7.4, 24 h at 37° C., 20 equivalents of serine) [%]	hydrolytic stability ([3]; buffer (100 mM TRIS-HCl, pH 7.4), 24 h at 37° C.) [%]
14.6	25.6	>99	>99	>99				O=C1OCCN1C(=O)c1ccccc1 [Compound 1, 3-benzoyloxazolidin-2-one]					
13.6	37.8	>99	88.6	82.5				O=C1SCCN1C(=O)c1ccccc1 [Compound 2, 3-benzoylthiazolidin-2-one]					
44.7	>99	59.5	95.5	41.2	full deprotection	poorer stability	poorer stability	O=C(c1ccccc1)N1CCOC1=S [Compound 3, Phenyl(2-thioxooxazolidin-3-yl)methanone]					
48.5	>99	77.6	57.0	54.8	full deprotection	poorer stability	poorer stability	O=C(c1ccccc1)N1CCSC1=S [Compound 4, Phenyl(2-thioxothiazolidin-3-yl)methanone]					
<1	<1	86.3	>99	94.5				O=C(Cc1ccccc1)N1CCOC1=O [Compound 5, 3-(2-phenylacetyl)oxazolidin-2-one]					
23.3	67.8	>99	>99	>99				O=C(Cc1ccccc1)N1CCSC1=O [Compound 6, 3-(2-phenylacetyl)thiazolidin-2-one]					
81.6	>99	45.7	54.6	24.4	full deprotection	poorer stability	poorer stability	O=C(Cc1ccccc1)N1CCOC1=S [Compound 7, 2-phenyl-1-(2-thioxooxazolidin-3-yl)ethan-1-one]					
87.6	>99	39.5	32.5	<1	full deprotection	poorer stability	poorer stability	O=C(Cc1ccccc1)N1CCSC1=S [Compound 8, 2-phenyl-1-(2-thioxothiazolidin-3-yl)ethan-1-one]					
								CC(C)Cc1ccc(C(C)C(=O)N2CCSC2=O)cc1 (stereo not drawn) [proIBU, 3-(2-(4-isobutylphenyl)propanoyl)thiazolidin-2-one]	little to no inhibition	> 99	> 99	> 99	> 99
